Measurements taken from patent US5608143A, “External regulation of gene expression” (E. I. Du Pont de Nemours and Company, priority 1994, dated 1997).

Legend:
[1] = tested on: petunia P6.1 gene (and endogenous tobacco T2.1 gene); test: RNAse protection analysis of petunia P6.1 gene expression in transgenic tobacco roots and callus; assay type: in vivo, tobacco (SR1)
Method: Tobacco (SR1) was used as the recipient for transformation. In vitro grown leaf material was sliced into strips using a scalpel. The strips were dipped into Agrobacterium tumefaciens containing the construct P627 (bacterial concentration was 0.2 A550). Leaf pieces were placed on media containing MS major salts, MS minor salts, B5 vitamins, MS iron, 3% sucrose, 0.1 μg/l NAA, […], 0.7% TC agar, pH 5.8 and incubated for 2-3 days under growlights. Leaf material was removed and washed by placing in liquid culture medium containing […] and rotating gently for 3-4 hours. The leaf pieces were then placed on medium containing 100 μg/l carbinicillin and 300 mg/l kanamycin and transferred every 2 weeks. Shoots appeared after 2-8 weeks and were transferred to rooting medium (0.5× MS major salts, MS minor salts, iron, 1% sucrose, 0.8% agar, and 2 μM indolebutyric acid). Eight independent transformed plants were regenerated. […]
The inducibility of the P6.1 gene was also examined in callus tissue derived from transformed tobacco plants. […] The inducibility of both the introduced petunia P6 gene and the endogenous tobacco T2.1 gene by N-(aminocarbonyl)-2-chlorobenzanesulfonamide treatment was evaluated using the RNAse protection analysis as described above. […]

[2] = tested on: 2-2 gene (In 2-2 mRNA); test: RNA slot blot / Northern analysis of 2-2 mRNA in roots of chemically treated corn; assay type: in vivo, corn (Missouri 17); parameters: In2-2 induction level: key to the marks not given beside the values
Method: Details of the techniques used to perform the procedures used in Example 2 are presented in Example 1. The cDNA library made using poly(A)^+ RNA from the roots of N-(aminocarbonyl)-2-chlorobenzenesulfonamide-treated Missouri 17 corn plants (described in Example 1) was analyzed for additional cDNA clones representing mRNAs induced by substituted benzenesulfonamides. […] This colony was designated In 2-2.
A small scale plasmid preparation was performed on the plasmid contained in colony In 2-2. This plasmid was designated pIn 2-2. An aliquot of pIn 2-2 was nick translated as described earlier. A slot blot containing total RNA from N-(aminocarbonyl)-2-chlorobenzenesulfonamide-treated and untreated roots was prepared and probed with nick-translated pIn 2-2 as described for pIn 2-1 in Example 1.
The pIn 2-2 small scale plasmid preparation was digested to completion with Pst I and analyzed by agarose gel electrophoresis. The cDNA insert of the plasmid was excised by Pst I as a single 1200 bp fragment. Nick-translatedpIn 2-2 was used to probe a Northern blot of RNA from both untreated and N-(aminocarbonyl)-2-chlorobenzenesulfonamide-treated roots.
The ability at various substituted benzenesulfonamides and related compound to induce the expression of the 2-1, 2-2, and 5-2 genes of Missouri 17 corn was evaluated. Corn seeds were germinated and grown hydroponically in 2 liter beakers as described in Example 1. On the tenth day, plants were transferred into fresh 0.5× Hoagland's solution containing the chemical to be tested. Root tissue was harvested from the plants after six hours of chemical treatment, quick-frozen by immersion in liquid N2, and stored at -80° C. until analyzed.
Details of the RNA isolation and slot blot analysis procedures are presented in Example 1. Total RNA was prepared from the root tissue of plants that had been treated with various chemicals using the previously described guanidine thiocyanate procedure. Replicate blots, each consisting of 2 μg of total RNA from tissues treated with each of the chemicals shown in tables 8 and 9, were prepared on nitrocellulose membranes using a Minifold II® Slot-blotter (Schleicher & Schuell) following the manufacturer's recommeneded procedure. Replicate blots were prehybridized and hybridized with cDNA probes made by nick translation of the purified cDNA inserts from plasmid pIn 2-1, pIn 2-2-3, and pIn 5-2. Slot blots were washed as described in Example 1 and exposed to Kodak X-OMAT XAR-5 film for 24 hours at -80° C. using a single Du Pont Lightning Plus intensifying screen. Film was developed using a Kodak X-OMAT film processor. The abililty of a chemical to induce the mRNA encoded by the three inducible genes was evaluated in one of two ways. Qualitative evaluation was performed by direct visual comparison of the autoradiographic signal intensities on the films for the hybridization of each probe to the different RNA samples. Quantitative evaluation was performed by cutting each slot containing hybridized RNA from the blot, immersing it in 2 ml of Du Pont ECONOFLUOR® scintillation cocktail and counting the radioactivity in each slot in a scintillation counter. The net amount of radioactivity hybridizing to N-(aminocarbonyl)-2-chlorobenzenesulfonamide-treated RNA after subtraction of radioactivity hybridizing to untreated RNA is presented in Table 15.

[3] = hydroponic treatment, corn roots

## NC(=O)NS(=O)(=O)c1ccccc1Cl
[1]; callus from transformed tobacco, 100 mg/l, 6 and 20 hours
  expression of petunia P6 gene and endogenous tobacco T2.1 gene in callus (RNAse protection): strong expression of both genes was observed
[1]; transgenic tobacco (P627), hydroponic 200 mg/l, six hours
  inducible expression of the transferred petunia P6.1 gene in roots (RNAse protection): All eight transformants demonstrated inducible expression
[2]; hydroponic application, 100 ppm
  In2-2 induction level: +++++
[2]; [3]
  hybridization of pIn 2-2 to root RNA (Northern blot): present only in RNA from the roots
  hybridization of pIn 2-2 to root RNA (slot blot): hybridizes strongly
